Data: patent US20070032529A1, “Pyrazole compounds and their use as antidiabetes agents” (Japan Tobacco Inc., priority 2005, published 2007)
Counter-ions that a name gives are not always drawn.

Tests used:
[1] = target: T1, recombinant human liver glycogen phosphorylase (Homo sapiens, UniProt P06737); assay: Measuring liver glycogen phosphorylase activity (forward reaction system, NADPH absorbance at 340 nm); type: biochemical; details: enzyme inhibitory activity with respect to liver glycogen phosphorylase; class symbols
T1 construct: made in house; host or cells: Sf9 insect cells (crude homogenate, diluted, used as the enzyme solution)
T1 sequence (P06737 1-847): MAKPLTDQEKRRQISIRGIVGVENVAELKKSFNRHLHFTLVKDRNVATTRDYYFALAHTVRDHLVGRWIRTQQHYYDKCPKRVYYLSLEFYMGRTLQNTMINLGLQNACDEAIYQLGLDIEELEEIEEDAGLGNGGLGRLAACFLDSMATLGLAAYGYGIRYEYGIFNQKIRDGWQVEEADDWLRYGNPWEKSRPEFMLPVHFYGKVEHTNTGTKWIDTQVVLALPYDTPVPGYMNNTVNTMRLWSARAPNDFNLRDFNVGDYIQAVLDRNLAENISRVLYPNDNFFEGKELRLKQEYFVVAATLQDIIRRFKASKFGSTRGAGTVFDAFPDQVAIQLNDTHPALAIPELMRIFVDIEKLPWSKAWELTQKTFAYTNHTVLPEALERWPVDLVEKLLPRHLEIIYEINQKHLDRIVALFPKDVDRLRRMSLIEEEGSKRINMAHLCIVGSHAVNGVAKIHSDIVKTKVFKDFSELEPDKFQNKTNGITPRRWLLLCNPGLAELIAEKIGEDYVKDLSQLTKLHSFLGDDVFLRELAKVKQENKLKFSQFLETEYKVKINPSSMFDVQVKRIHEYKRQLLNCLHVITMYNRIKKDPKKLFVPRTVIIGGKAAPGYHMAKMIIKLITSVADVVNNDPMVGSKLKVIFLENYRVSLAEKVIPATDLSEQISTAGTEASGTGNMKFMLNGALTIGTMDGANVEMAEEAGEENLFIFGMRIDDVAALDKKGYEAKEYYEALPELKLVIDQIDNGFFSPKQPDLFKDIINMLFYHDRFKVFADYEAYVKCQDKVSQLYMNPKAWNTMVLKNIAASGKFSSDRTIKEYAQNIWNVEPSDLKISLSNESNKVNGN
Procedure, shortened: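 Compounds in 1% DMSO; activity taken as blank-subtracted 340 nm absorbance change across 75 min at room temperature. Forward reaction: glucose-1-phosphate released from glycogen converted by coupling enzymes, yielding NADPH; enzyme from recombinant Sf9 homogenate, reaction containing glucose, pH 6.8. IC50 from two-point linear interpolation.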

db/db mice = assay: Measuring blood plasma glucose concentration in db/db mice (hypoglycemic effect); type: in vivo; set-up: key: ++: compounds exhibiting statistically significant hypoglycemic effect at a dose of 10 mg/kg or less; +: compounds exhibiting not significant but obvious hypoglycemic effect at a dose of 10 mg/kg; details: db/db mice fasted 4 h, oral administration, plasma glucose 1 and 3 hours after administration, dose 10 mg/kg or less, Dunnett test vs solvent
Experimental: 2. Exemplary Test (2) Method for Measuring Blood Plasma Glucose Concentration
Using db/db mice representing an obesity type of diabetic model were used to examine the effect of compound (1) of the present invention on glucose concentrations in plasma. Plasma glucose concentrations of the db/db mice (9-18 weeks old) were measured, and the mice were divided into groups each of 5 or 8 mice such that there would be no difference in the average value of plasma glucose concentrations. After fasting for four hours, the example compound or the solvent (0.5% methylcellulose) was administered orally to the db/db mice, and plasma glucose concentrations were measured 1 and 3 hours after administration. The analysis of the hypoglycemic effect of the example compound was performed through a statistical test at every hour between the group receiving the solvent and the groups of example compound (Dunnett test).

Structure (SMILES)	IC50 [1] [nM]	vivo (hypoglycemic effect in db/db mice) (db/db mice)	vivo (hypoglycemic effect in db/db mice) (db/db mice; 10 mg/kg)
COc1ccc(CN(C(=O)c2cc(NC(=O)c3cc(F)c(F)cc3Cl)[nH]n2)C2CCC2)cn1 [Example 1-127]	< 100	+	–
COc1ccc(CN(CC2CC2)C(=O)c2cc(NC(=O)c3cc(F)c(F)cc3Cl)[nH]n2)cn1 [Example 1-128]	< 100	+	–
CN(C)c1ccc(CNC(=O)c2cc(NC(=O)c3cc(F)c(F)cc3Cl)[nH]n2)cn1 [Example 1-129]	< 100	–	+
CCCN(Cc1ccc(N(C)C)nc1)C(=O)c1cc(NC(=O)c2cc(F)c(F)cc2Cl)[nH]n1 [Example 1-130]	< 100	+	–
CCCN(Cc1ccc(Cl)nc1)C(=O)c1cc(NC(=O)c2cc(F)c(F)cc2Cl)[nH]n1 [Example 1-133]	< 100	+	–
O=C(NCc1c(Cl)cccc1Cl)c1cc(NC(=O)c2cc(F)c(F)cc2Cl)[nH]n1 [Example 1-134]	< 100	+	–
O=C(NCc1c(Cl)cncc1Cl)c1cc(NC(=O)c2cc(F)c(F)cc2Cl)[nH]n1 [Example 1-135]	< 100	+	–
CCCN(Cc1c(Cl)cncc1Cl)C(=O)c1cc(NC(=O)c2cc(F)c(F)cc2Cl)[nH]n1 [Example 1-136]	< 100	+	–
O=C(NCc1ccc(-n2cccn2)nc1)c1cc(NC(=O)c2cc(F)c(F)cc2Cl)[nH]n1 [Example 1-137]	< 100	+	–
O=C(NCc1ccc(N2CCC(O)CC2)nc1)c1cc(NC(=O)c2cc(F)c(F)cc2Cl)[nH]n1 [Example 1-138]	< 100	+	–
Cc1cc(C)c(CNC(=O)c2cc(NC(=O)c3cc(F)c(F)cc3Cl)[nH]n2)cn1 [Example 2-4-1, 5-(2-chloro-4,5-difluoro-benzoylamino)-1H-pyrazole-3-carboxylic acid (4,6-dimethyl-pyridin-3-ylmethyl)-amide dihydrochloride]	< 100	++	–
COc1nc(C)ccc1CNC(=O)c1cc(NC(=O)c2cc(F)c(F)cc2Cl)[nH]n1 [Example 2-5, 5-(2-chloro-4,5-difluoro-benzoylamino)-1H-pyrazole-3-carboxylic acid (2-methoxy-6-methyl-pyridin-3-ylmethyl)-amide]	< 100	++	–
COc1cc(C)ncc1CNC(=O)c1cc(NC(=O)c2cc(F)c(F)cc2Cl)[nH]n1 [Example 2-6, 5-(2-chloro-4,5-difluoro-benzoylamino)-1H-pyrazole-3-carboxylic acid (4-methoxy-6-methyl-pyridin-3-ylmethyl)-amide]	< 100	++	–
COc1nc(C)cc(C)c1CNC(=O)c1cc(NC(=O)c2cc(F)c(F)cc2Cl)[nH]n1 [Example 2-7-1, 5-(2-chloro-4,5-difluoro-benzoylamino)-1H-pyrazole-3-carboxylic acid (2-methoxy-4,6-dimethyl-pyridin-3-ylmethyl)-amide dihydrochloride]	< 100	++	–
Cc1cccnc1CNC(=O)c1cc(NC(=O)c2cc(F)c(F)cc2Cl)[nH]n1 [Example 2-8]	< 100	+	–
Cc1ccnc(CNC(=O)c2cc(NC(=O)c3cc(F)c(F)cc3Cl)[nH]n2)c1 [Example 2-9]	< 100	+	–
Cc1ccc(CNC(=O)c2cc(NC(=O)c3cc(F)c(F)cc3Cl)[nH]n2)nc1 [Example 2-10]	< 100	+	–
Cc1cccc(CNC(=O)c2cc(NC(=O)c3cc(F)c(F)cc3Cl)[nH]n2)n1 [Example 2-11]	< 100	+	–
O=C(NCc1ccc(F)nc1)c1cc(NC(=O)c2cc(F)c(F)cc2Cl)[nH]n1 [Example 2-13]	< 100	+	–
CS(=O)(=O)Nc1cccc(CNC(=O)c2cc(NC(=O)c3cc(F)c(F)cc3Cl)[nH]n2)c1 [Example 2-15]	< 100	+	–
O=C(NCc1ccc(Cl)nc1)c1cc(NC(=O)c2cc(F)c(F)cc2Cl)[nH]n1 [Example 2-23]	< 100	+	–
O=C(NCc1cccnc1Cl)c1cc(NC(=O)c2cc(F)c(F)cc2Cl)[nH]n1 [Example 2-24]	< 100	+	–

More lines, main results first:

IC50 [1] [nM]	Structure (SMILES)	vivo (hypoglycemic effect in db/db mice) (db/db mice)	vivo (hypoglycemic effect in db/db mice) (db/db mice; 10 mg/kg)
< 100	O=C(NCc1cccnc1F)c1cc(NC(=O)c2cc(F)c(F)cc2Cl)[nH]n1 [Example 2-27]	+	–
< 100	Cc1ncccc1CNC(=O)c1cc(NC(=O)c2cc(F)c(F)cc2Cl)[nH]n1 [Example 2-28]	+	–
100 to 300	O=C(NCc1ccccc1)c1cc(NC(=O)c2cc(F)c(F)cc2Cl)[nH]n1 [Example 3-2, 5-(2-chloro-4,5-difluoro-benzoylamino)-1H-pyrazole-3-carboxylic acid benzylamide]	+	–
100 to 300	CN(C(=O)c1cc(NC(=O)c2cc(F)c(F)cc2Cl)[nH]n1)c1ccccc1 [Example 3-4]	+	–
< 100	CCN(C(=O)c1cc(NC(=O)c2cc(F)c(F)cc2Cl)[nH]n1)c1ccccc1 [Example 3-11]	+	–
< 100	Cl.O=C(NCc1ccccn1)c1cc(NC(=O)c2cc(F)c(F)cc2Cl)[nH]n1 [Example 3-20]	+	–
< 100	Cl.O=C(NCc1ccncc1)c1cc(NC(=O)c2cc(F)c(F)cc2Cl)[nH]n1 [Example 3-21]	++	–
< 100	CN(C)c1ccc(CNC(=O)c2cc(NC(=O)c3cc(F)c(F)cc3Cl)[nH]n2)cc1 [Example 3-24]	+	–
< 100	O=C(NCc1ccco1)c1cc(NC(=O)c2cc(F)c(F)cc2Cl)[nH]n1 [Example 3-25]	+	–
< 100	O=C(NCc1cccs1)c1cc(NC(=O)c2cc(F)c(F)cc2Cl)[nH]n1 [Example 3-26]	+	–
< 100	Nc1ccc(CNC(=O)c2cc(NC(=O)c3cc(F)c(F)cc3Cl)[nH]n2)cc1 [Example 3-31]	+	–
< 100	Cc1ccccc1CNC(=O)c1cc(NC(=O)c2cc(F)c(F)cc2Cl)[nH]n1 [Example 3-32]	+	–
< 100	Cc1cccc(CNC(=O)c2cc(NC(=O)c3cc(F)c(F)cc3Cl)[nH]n2)c1 [Example 3-33]	+	–
< 100	COc1ncccc1CNC(=O)c1cc(NC(=O)c2cc(F)c(F)cc2Cl)[nH]n1 [Example 3-35]	++	–
< 100	COC(=O)c1cccc(CNC(=O)c2cc(NC(=O)c3cc(F)c(F)cc3Cl)[nH]n2)c1 [Example 3-38]	+	–
< 100	O=C(O)c1cccc(CNC(=O)c2cc(NC(=O)c3cc(F)c(F)cc3Cl)[nH]n2)c1 [Example 3-39]	+	–
< 100	O=C(NCc1ccc(C(F)(F)F)nc1)c1cc(NC(=O)c2cc(F)c(F)cc2Cl)[nH]n1 [Example 3-40]	++	–
< 100	CCOc1ncccc1CNC(=O)c1cc(NC(=O)c2cc(F)c(F)cc2Cl)[nH]n1 [Example 3-41]	++	–
< 100	COc1ccnc(CNC(=O)c2cc(NC(=O)c3cc(F)c(F)cc3Cl)[nH]n2)c1 [Example 3-45]	+	–
